Laboratory results as given in patent US12678423B2, “Therapeutic agent for amyotrophic lateral sclerosis and composition for treatment” (KEIO UNIVERSITY, priority 2016, dated 2026).

Experiments:
Format in all cases: cell-based, human
Conditions in all cases: final concentration 10 μM, added days 35 to 40
[1] = system: motor neurons induced to differentiate from iPS cells derived from ALS patients (FUS-ALS) having a mutation in FUS; assay: Neurite length, FUS-ALS motor neurons (screening, Example I-8)
Protocol: (§1) For each differentiation-induced motor neuron in Example I-1, the changes over time in the neurite length were measured. A Bio station CT (Nikon Corp.) was used to measure the neurite length over time. FIG. 1 is a graph showing measurement results of changes over time in the neurite length. The vertical axis represents neurite length (relative value), and the horizontal axis represents the number of days of culturing from the start of differentiation induction.
(§2) Using the differentiation-induced motor neurons in Example I-1, drugs which cause the ALS phenotype to be restored were screened from existing drug libraries with the neurite length, ectopic localization of FUS protein, stress granule formation, LDH leakage ratio, CV-caspase 3-positive ratio, phosphorylated TDP-43 protein inclusion formation, and the like as indices.
(§3) As a result of the screening, ropinirole was found as a promising therapeutic agent for ALS. Tables 5 and 6 show the improvement ratio (%) in the ALS phenotype due to adding ropinirole to the medium. Here, ropinirole was added to the medium on days 35 to 40 from the start of the differentiation induction of each iPS cell. Here, it is assumed that days 35 to 40 from the start of differentiation induction correspond to the early stage of the ALS disease.
(§4) The improvement ratio (%) of the ALS phenotype was calculated by Equation (1).
(§5) [formula] [In Equation (1), A represents a measurement value of motor neurons induced to differentiate from iPS cells derived from ALS patients in the absence of ropinirole, and B represents a measurement value of motor neurons induced to differentiate from iPS cells derived from ALS patients in the presence of ropinirole, and C represents a measurement value of motor neurons induced to differentiate from iPS cells derived from healthy subjects in the absence of ropinirole.]
(§6) Subsequently, in the same manner as above, the efficacy in cases of administering lower concentrations of ropinirole was evaluated.
(§7) Each drug was added to the medium at a final concentration of 10 μM.

[2] = system: motor neurons induced to differentiate from iPS cells derived from ALS patients (FUS-ALS) having a mutation in FUS; assay: Ectopic localization of FUS protein in the cytoplasm, FUS-ALS motor neurons
Source text: Therefore, on day 40 from the start of differentiation induction, each differentiation-induced motor neuron in Example I-1 was immunostained and the localization of FUS protein in the cytoplasm was examined.
as §2, §3, §4, §5, §6, §7

[3] = system: motor neurons induced to differentiate from iPS cells derived from ALS patients (FUS-ALS) having a mutation in FUS; assay: Stress granule formation (G3BP immunostaining), FUS-ALS motor neurons
Protocol: On day 40 from the start of differentiation induction, the formation of stress granules was examined using each differentiation-induced motor neuron in Example I-1. The detection of stress granules was performed by immunostaining with G3BP, which is a marker of stress granules.
as §2, §3, §4, §5, §6, §7

[4] = system: motor neurons induced to differentiate from iPS cells derived from ALS patients (FUS-ALS) having a mutation in FUS; assay: LDH leakage ratio, FUS-ALS motor neurons
Protocol: (§8) The leakage amount of LDH into the medium is an indicator of cytotoxicity. For measurement of the LDH leakage ratio, a commercially available kit (model “LDH Cytotoxicity Detection Kit”, Takara Bio Inc.) was used.
(§9) Here, ropinirole was added to the medium on days 35 to 40 from the start of the differentiation induction of each iPS cell. Here, it is assumed that days 35 to 40 from the start of differentiation induction correspond to the early stage of the ALS disease.
as §4, §5, §6, §7

[5] = system: motor neurons induced to differentiate from iPS cells derived from ALS patients (TDP-43-ALS) having a mutation in TDP-43; assay: Neurite length, TDP-43-ALS motor neurons (screening, Example I-8)
Protocol: as §1, §2, §3, §4, §5, §6, §7

[6] = system: motor neurons induced to differentiate from iPS cells derived from ALS patients (TDP-43-ALS) having a mutation in TDP-43; assay: Phosphorylated TDP-43 protein inclusion formation, TDP-43-ALS motor neurons
Source text: Therefore, on day 40 from the start of differentiation induction, each differentiation-induced motor neuron in Example I-1 was immunostained and the formation of phosphorylated TDP-43 protein inclusions was examined.
as §2, §3, §4, §5, §6, §7

[7] = system: motor neurons induced to differentiate from iPS cells derived from ALS patients (TDP-43-ALS) having a mutation in TDP-43; assay: LDH leakage ratio, TDP-43-ALS motor neurons
Protocol: as §8, §9, §4, §5, §6, §7

| Compound | Neurite length improvement ratio [1] [%] | Ectopic localization of FUS protein improvement ratio [2] [%] | Stress granule formation improvement ratio [3] [%] | LDH leakage ratio improvement ratio [4] [%] | Neurite length improvement ratio [5] [%] | TDP-43 inclusion formation improvement ratio [6] [%] | LDH leakage ratio improvement ratio [7] [%] |
| --- | --- | --- | --- | --- | --- | --- | --- |
| CO/N=C(\C(=O)N[C@@H]1C(=O)N2C(C(=O)O)=C(CSc3nc(=O)c(=O)[nH]n3C)CS[C@H]12)c1csc(N)n1 [Ceftriaxone] | 36.3 | 22.6 | 11.0 | 21.2 | 20.4 | 35.4 | 15.1 |
| CC1=NN(c2ccccc2)C(=O)C1 [Edaravone] | 15.9 | 20.4 | 19.8 | 12.4 | 14.2 | 11.6 | 23.2 |
